Test results as given in patent publication US6545002B1 (University of Virginia Patent Foundation, priority 1999, dated 2003).
Read-outs that look alike come from different tables or passages of the source.

Key:
[1] = molecular target: T1, human A3 receptors (hA3) (Homo sapiens, UniProt P0DMS8); experiment: Displacement of [125I]ABA binding at human A3 receptors expressed in HEK-293 cells; conditions: Table 1; [125I]ABA, HEK-293; read-out: hA3 Ki or IC50
T1 construct: expressed in transfected cells; host or cells: HEK-293
T1 sequence (P0DMS8 1-318): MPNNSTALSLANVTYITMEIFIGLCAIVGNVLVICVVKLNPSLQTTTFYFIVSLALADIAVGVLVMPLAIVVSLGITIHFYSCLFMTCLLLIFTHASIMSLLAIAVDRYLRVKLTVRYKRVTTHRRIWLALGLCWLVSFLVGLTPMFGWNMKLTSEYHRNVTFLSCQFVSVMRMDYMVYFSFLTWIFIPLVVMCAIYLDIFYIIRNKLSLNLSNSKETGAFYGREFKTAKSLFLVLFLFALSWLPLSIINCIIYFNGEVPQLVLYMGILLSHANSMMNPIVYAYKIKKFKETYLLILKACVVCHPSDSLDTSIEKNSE

[2] = molecular target: T2, A3 receptors (r) (Rattus norvegicus, UniProt P28647); experiment: Binding at rat A3 receptors, values marked (r) in Table 1
T2 sequence (P28647 1-320): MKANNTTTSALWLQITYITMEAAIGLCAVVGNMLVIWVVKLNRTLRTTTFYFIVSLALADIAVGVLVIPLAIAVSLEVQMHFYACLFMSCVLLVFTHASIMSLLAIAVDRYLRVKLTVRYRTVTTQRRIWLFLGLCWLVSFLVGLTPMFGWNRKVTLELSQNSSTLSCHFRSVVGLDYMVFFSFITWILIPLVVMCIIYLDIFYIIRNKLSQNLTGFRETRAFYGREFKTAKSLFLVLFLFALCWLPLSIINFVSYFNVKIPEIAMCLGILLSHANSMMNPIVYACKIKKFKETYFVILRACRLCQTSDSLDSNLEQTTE

[3] = molecular target: T3, recombinant human A1 receptors (hA1) (Homo sapiens, UniProt P30542); experiment: Radioligand binding ([3H]CPX) at recombinant human A1 receptors in HEK-293 cells
T3 sequence (P30542 1-326): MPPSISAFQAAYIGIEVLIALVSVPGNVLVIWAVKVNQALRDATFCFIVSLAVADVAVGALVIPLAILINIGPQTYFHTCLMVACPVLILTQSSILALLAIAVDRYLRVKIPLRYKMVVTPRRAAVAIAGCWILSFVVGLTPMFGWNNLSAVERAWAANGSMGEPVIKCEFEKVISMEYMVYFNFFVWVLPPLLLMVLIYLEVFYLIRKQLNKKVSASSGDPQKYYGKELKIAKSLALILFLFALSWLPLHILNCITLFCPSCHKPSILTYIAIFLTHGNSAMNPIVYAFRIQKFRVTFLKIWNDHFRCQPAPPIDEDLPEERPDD
Method: (§1) All non-radioactive compounds were initially dissolved in DMSO, and diluted with buffer to the final concentration, where the amount of DMSO never exceeded 2%. Incubations were terminated by rapid filtration over Whatman GF/B filters, using a Brandell cell harvester (Brandell, Gaithersburg, Md.). The tubes were rinsed three times with 3 mL buffer each.
(§2) At least six different concentrations of competitor, spanning 3 orders of magnitude adjusted appropriately for the IC50 of each compound, were used. IC50 values, calculated with the nonlinear regression method implemented in (Graph-Pad Prism, San Diego, Calif.), were converted to apparent Ki values as described.
(§3) The potency of the xanthine derivatives at human A2B receptors was evaluated using two binding assays. […] In order to determine selectivity, the xanthines were evaluated using standard binding assays at A1, A2A, and A3 receptors.

[4] = molecular target: T4, rat A1 receptors (rA1) (Rattus norvegicus, UniProt P25099); experiment: Displacement of [3H]R-PIA binding in rat brain (cerebral cortical) membranes
T4 construct: to A1 receptors from rat cerebral cortical membranes; from tissue; host or cells: rat cerebral cortical (brain) membranes
T4 sequence (P25099 1-326): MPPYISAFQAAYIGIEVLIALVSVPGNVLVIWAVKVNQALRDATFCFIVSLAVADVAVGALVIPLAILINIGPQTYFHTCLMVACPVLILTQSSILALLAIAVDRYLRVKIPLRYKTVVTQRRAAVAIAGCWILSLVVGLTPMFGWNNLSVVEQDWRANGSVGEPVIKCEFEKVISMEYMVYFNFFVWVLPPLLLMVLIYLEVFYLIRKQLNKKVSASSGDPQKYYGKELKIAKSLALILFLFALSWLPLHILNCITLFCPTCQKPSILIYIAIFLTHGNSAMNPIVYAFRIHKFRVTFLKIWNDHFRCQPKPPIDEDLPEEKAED

[5] = molecular target: T5, rat A2A receptors (rA2A) (Rattus norvegicus, UniProt P30543); experiment: Displacement of [3H]CGS 21680 binding in rat striatal membranes
T5 construct: to A2A receptors from rat striatal membranes was performed as described; from tissue; host or cells: rat striatal membranes

[6] = molecular target: recombinant human A2A receptors (hA2A) (Homo sapiens, UniProt P29274); experiment: Radioligand binding (125I-ZM241385) at recombinant human A2A receptors in HEK-293 cells
Method: as §1, §2, §3

[7] = molecular target: T6, human A2B receptors (hA2B) (Homo sapiens, UniProt P29275); experiment: Radioligand binding ([125I]ABOPX / [3H]ZM241385) at human A2B receptors expressed in HEK-293 cells; conditions: for hA1/hA2B / hA2A/hA2B / hA3/hA2B / rA1/hA2B: Ki ratio
T6 construct: expressed in transfected cells; host or cells: HEK-293 (HEK-A2B, G418-selected)
T6 sequence (P29275 1-332): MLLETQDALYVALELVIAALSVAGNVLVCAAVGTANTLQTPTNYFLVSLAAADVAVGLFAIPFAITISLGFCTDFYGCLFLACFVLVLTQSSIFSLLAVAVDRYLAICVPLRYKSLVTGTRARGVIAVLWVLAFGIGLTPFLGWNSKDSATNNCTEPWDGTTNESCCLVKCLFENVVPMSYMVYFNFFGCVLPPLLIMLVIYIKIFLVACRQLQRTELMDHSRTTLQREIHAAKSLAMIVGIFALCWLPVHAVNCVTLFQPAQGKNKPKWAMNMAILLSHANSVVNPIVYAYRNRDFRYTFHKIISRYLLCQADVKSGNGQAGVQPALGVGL

[8] = molecular target: T1, human A3 receptors (hA3); experiment: Displacement of [125I]AB-MECA binding at human A3 receptors expressed in HEK-293 cells (Table 4)
[9] = read-out: hA1 Ki, values marked (h), Table 1, recombinant human A1, HEK 293
[10] = Table 1, [3H]R-PIA, rat brain membranes, read-out: rA1 Ki or IC50
[11] = Table 1, [3H]CGS 21680, rat striatal membranes, read-out: rA2A Ki or IC50
[12] = read-out: hA2A Ki, values marked (h), Table 1, recombinant human A2A, HEK 293
[13] = Table 1, [125I]ABOPX, HEK-293, read-out: hA2B Ki or IC50
[14] = read-out: hA1 Ki, values marked (h)^a, Table 4, vs [3H]CPX, HEK-293
[15] = read-out: hA2A Ki, values marked (h)^a, Table 4, vs [125I]ZM241385, HEK-293
[16] = Table 4, unmarked value, first of two binding assays, read-out: hA2B Ki
[17] = read-out: Ki value at human A2B receptors

Chain of recombinant human A2A receptors (hA2A) (P29274 whole entry): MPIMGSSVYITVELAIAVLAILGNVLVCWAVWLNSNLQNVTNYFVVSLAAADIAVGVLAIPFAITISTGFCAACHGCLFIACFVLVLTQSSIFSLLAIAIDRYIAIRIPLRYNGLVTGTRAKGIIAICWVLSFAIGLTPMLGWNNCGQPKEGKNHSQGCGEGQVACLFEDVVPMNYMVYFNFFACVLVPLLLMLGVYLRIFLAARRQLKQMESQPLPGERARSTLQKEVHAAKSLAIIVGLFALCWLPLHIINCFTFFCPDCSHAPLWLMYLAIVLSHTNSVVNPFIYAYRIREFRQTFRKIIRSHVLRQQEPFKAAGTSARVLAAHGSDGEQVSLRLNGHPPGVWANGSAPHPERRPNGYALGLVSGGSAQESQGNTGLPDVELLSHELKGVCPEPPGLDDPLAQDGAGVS
T5 sequence (P30543 whole entry): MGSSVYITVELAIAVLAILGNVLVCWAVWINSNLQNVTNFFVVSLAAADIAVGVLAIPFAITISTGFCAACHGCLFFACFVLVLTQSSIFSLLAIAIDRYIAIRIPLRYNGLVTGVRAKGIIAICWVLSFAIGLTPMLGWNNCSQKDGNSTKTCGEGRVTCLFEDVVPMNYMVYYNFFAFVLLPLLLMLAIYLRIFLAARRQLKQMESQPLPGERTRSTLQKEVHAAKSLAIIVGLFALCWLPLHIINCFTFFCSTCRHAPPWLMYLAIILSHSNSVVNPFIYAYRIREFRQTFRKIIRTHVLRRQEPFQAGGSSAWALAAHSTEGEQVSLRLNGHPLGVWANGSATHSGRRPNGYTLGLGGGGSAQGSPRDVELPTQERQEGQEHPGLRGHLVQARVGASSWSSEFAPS

Row | Ki ([4]; Table 4, read-out: rA1 Ki) [nM] | Ki ([5]; Table 4, read-out: rA2A Ki) [nM] | rA1/hA2B ([7]; Table 4) | Ki [7, 16] [nM] | Ki [8] [nM] | Ki [7, 17] [nM] | Structure (SMILES) | also measured
1 |  |  |  |  |  |  | CCCn1c(=O)c2[nH]c(-c3ccc(OCC(=O)O)cc3)nc2n(CCC)c1=O [Compound 4a, 8-[4-[[[carboxy]methyl]oxy]phenyl]-1,3-dipropylxanthine] | Ki [1]: 3910 nM; Ki [2]: 75700 nM; Ki [3, 9]: 175 ± 57 nM
2 |  |  |  |  |  |  | C=CCn1c(=O)c2[nH]c(-c3ccc(OCC(=O)O)cc3)nc2n(CC=C)c1=O [Compound 5] | Ki [4, 10]: 756 ± 147 nM; Ki [1]: 816 ± 91 nM; Ki [2]: 173000 nM; Ki [5, 11]: 4290 nM; Ki [3, 9]: 1660 nM; Ki [6, 12]: 2370 nM; hA1/hA2B ([7]; Table 1): 12; hA2A/hA2B ([7]; Table 1): 17; hA3/hA2B ([7]; Table 1): 5.8; Ki [7, 13]: 141 ± 29 nM
3 |  |  |  |  |  |  | CCCCn1c(=O)c2[nH]c(-c3ccc(OCC(=O)O)cc3)nc2n(CCCC)c1=O [Compound 6] | Ki [4, 10]: 43.1 ± 9.9 nM; Ki [1]: 90.3 ± 14.2 nM; Ki [2]: 27500 nM; Ki [5, 11]: 874 ± 107 nM; Ki [3, 9]: 149 ± 83 nM; Ki [6, 12]: 2540 nM; hA1/hA2B ([7]; Table 1): 3.1; hA2A/hA2B ([7]; Table 1): 53; hA3/hA2B ([7]; Table 1): 1.9; Ki [7, 13]: 48 ± 16.9 nM
4 | 73.3 ± 22 | 174 ± 32 | 1.6 | 116 ± 10 | 173 ± 27 |  | CCCn1c(=O)c2[nH]c(-c3ccc(OCC(=O)NNC(=O)CCC(=O)O)cc3)nc2n(CCC)c1=O [Compound 42, 8-[4-[(Carboxymethyl)oxy]phenyl]-1,3-di-(n-propyl)xanthine N-[(3-Carboxy)-n-propionyl]hydrazide] | Ki [3, 14]: 219 nM; Ki [6, 15]: 795 nM; Ki ([7]; Table 4, footnote a: [125I]-ABOPX, read-out: hA2B Ki (value marked ^a) (converted)): 97.8 nM
5 | 55.9 ± 25.1 | 805 ± 44 | 3.0 | 18.6 ± 6.1 | 766 ± 176 |  | CCCn1c(=O)c2[nH]c(-c3ccc(OCC(=O)NN4C(=O)CCC4=O)cc3)nc2n(CCC)c1=O [Compound 43, 8-[4-[(Carboxymethyl)oxy]phenyl]-1,3-di-(n-propyl)xanthine N,N-Succinylhydrazide] | Ki [3, 14]: 75.2 nM; Ki [6, 15]: 27.2 nM
6 | 36.4 ± 6.2 | 689 ± 477 | 3.6 |  | 370 ± 190 | 10 | CCCn1c(=O)c2[nH]c(-c3ccc(OCC(=O)NN4C(=O)[C@H]5CC=CC[C@H]5C4=O)cc3)nc2n(CCC)c1=O [Compound 52, 8-[4-[(Carboxymethyl)oxy]phenyl]-1,3-di-(n-propyl)xanthine N,N-(cis-1,2,3,6-Tetrahydrophthaloyl)hydrazide] | Ki [3]: 129 nM; Ki [6]: 301 nM
7 | 41.3 ± 6.4 | 1160 ± 337 | 1.9 | 21.5 ± 1.5 | 309 ± 88 |  | CCCn1c(=O)c2[nH]c(-c3ccc(OCC(=O)NN4C(=O)C5=C(CCC5)C4=O)cc3)nc2n(CCC)c1=O [Compound 54, 8-[4-[(Carboxymethyl)oxy]phenyl]-1,3-di-(n-propyl)xanthine N,N-(1-Cyclopentene-1,2-dicarbonyl)hydrazide] | 
8 | 47.2 ± 6.8 | 422 ± 136 | 2.7 | 17.3 ± 6.3 | 438 ± 109 | 17 | CCCn1c(=O)c2[nH]c(-c3ccc(OCC(=O)NNC(=O)C4=C(C(=O)O)CCCC4)cc3)nc2n(CCC)c1=O [Compound 55, 8-[4-[(Carboxymethyl)oxy]phenyl]-1,3-di-(n-propyl)xanthine N-[2-((1-Carboxy)-1-cyclohexene)-carbonyl]hydrazide] | Ki [3, 14]: 145 nM; Ki [6, 15]: 95.6 nM
9 | 61.9 ± 11.3 | 415 ± 157 | 1.7 | 35.8 ± 0.7 | 245 ± 45 |  | CCCn1c(=O)c2[nH]c(-c3ccc(OCC(=O)NN4C(=O)C5=C(CCCC5)C4=O)cc3)nc2n(CCC)c1=O [Compound 56, 8-[4-[(Carboxymethyl)oxy]phenyl]-1,3-di-(n-propyl)xanthine N,N-(3,4,5,6-Tetrahydrophthaloyl)hydrazide] | 
10 | 14 ± 2.3 | 135 ± 39 | 0.6 | 22 ± 5.5 | 200 ± 45 |  | CCCn1c(=O)c2[nH]c(-c3ccc(OCC(=O)NN4C(=O)CCCC4=O)cc3)nc2n(CCC)c1=O [Compound 58, 8-[4-[(Carboxymethyl)oxy]phenyl]-1,3-di-(n-propyl)xanthine N,N-Glutarylhydrazide] | 
11 | 41.2 ± 16.6 | 164 ± 61 | 1.6 | 25.7 ± 5.5 | 290 ± 88 |  | CCCn1c(=O)c2[nH]c(-c3ccc(OCC(=O)NN4C(=O)CC(O)CC4=O)cc3)nc2n(CCC)c1=O [Compound 59, 8-[4-[(Carboxymethyl)oxy]phenyl]-1,3-di-(n-propyl)xanthine N,N-(3-Hydroxy)glutarylhydrazide] | 
12 | 70.8 ± 30.9 | 872 ± 412 | 2.9 | 24.8 ± 7.3 | 430 ± 44 | 25 | CCCn1c(=O)c2[nH]c(-c3ccc(OCC(=O)NNC(=O)[C@H](CCC(=O)O)NC(=O)C(F)(F)F)cc3)nc2n(CCC)c1=O [Compound 60, 8-[4-[(Carboxymethyl)oxy]phenyl]-1,3-di-(n-propyl)xanthine N-[(4-Carboxy-(2S)-Trifluoroacetamido)-n-butanoyl]hydrazide] | 
13 | 53.5 ± 6.5 | 440 ± 106 | 4.1 |  | 726 ± 245 | 13 | CCCn1c(=O)c2[nH]c(-c3ccc(OCC(=O)NN4C(=O)CC[C@H](NC(=O)C(F)(F)F)C4=O)cc3)nc2n(CCC)c1=O [Compound 61] | Ki [3]: 149 nM; Ki [6]: 178 nM
14 | 36 ± 6.6 | 609 ± 95 | 3.3 | 10.8 ± 5 | 323 ± 47 | 11 | CCCn1c(=O)c2[nH]c(-c3ccc(OCC(=O)NNC(=O)CNC(=O)CNC(=O)OCc4ccccc4)cc3)nc2n(CCC)c1=O [Compound 64, 8-[4-[(Carboxymethyl)oxy]phenyl]-1,3-di-(n-propyl)xanthine N-(N-Benzyloxycarbonyl-glycylglycinyl)hydrazide] | Ki [3, 14]: 200 ± 22 nM; Ki [6, 15]: 830 ± 84 nM
